The text below walks through data of publication PMC6489322, “Biochemical characterization of recombinant Avihepatovirus 3C protease and its localization” (Virology Journal, 2019).

This test has as its target T1, DHAV 3C protease (avihepatovirus A1, UniProt Q076B4).
T1 construct: mature 3C cut from the genome polyprotein (aa 1614-1794, 181 aa); N-terminal His6 tag, pET32a (NdeI/HindIII), E. coli BL21, Ni-NTA; tag removal not described
Put plainly: FRET peptide cleavage assay, inhibition. The test is classed as biochemical. To be noted: 5 uM protease, 20 uM Dabcyl-ASFMNQSKVRRFE-Edans; inhibitor at 50 and 100 uM; cleavage buffer (assay optimum pH 7.0, 150 mM NaCl, 37 °C).

Turning to `CCOC(=O)/C=C/[C@H](C[C@@H]1CCNC1=O)NC(=O)[C@@H](CC(=O)[C@@H](NC(=O)c1cc(C)on1)C(C)C)Cc1ccc(F)cc1` [AG7088, Rupintrivir], the “FRET peptide cleavage assay, inhibition” value is “The results showed that AG7088 exhibited inhibitory activity against the DHAV 3C protease”.
